Laboratory results taken from ChEMBL document CHEMBL4819041 (J Med Chem, 2021).

Experiments:
Format in all cases: organism-based
Details in all cases: in vivo
[1] = Toxicity in Balb/c nude mouse xenografted with human MDA-MB-231 cells assessed as dose toleration at 20 mg/kg, ip QD
[2] = Toxicity in Balb/c nude mouse xenografted with human MDA-MB-231 cells assessed as change in body weight at 20 mg/kg, ip QD
[3] = Toxicity in Balb/c nude mouse xenografted with human MDA-MB-231 cells assessed as normal feeding at 20 mg/kg, ip QD
[4] = Toxicity in Balb/c nude mouse xenografted with human MDA-MB-231 cells assessed as normal inquisitiveness at 20 mg/kg, ip QD
[5] = Toxicity in Balb/c nude mouse xenografted with human MDA-MB-231 cells assessed as adverse effect at 20 mg/kg, ip QD

Measured: Activity

CNCc1ccccc1CN(CC(=O)Nc1ccc2c(c1)CC1(C2)C(=O)Nc2ncccc21)C(=O)C(C)(C)C (stereo not given)
Non-Toxic: all assays above
